Measured values from US6630157B1, “Therapeutic and dietary compositions containing essential fatty acids and bioactive disulphides” (Viatris GmbH & Co. KG., priority 1997, dated 2003).
“Also recorded” adds a separate entry of the source.

How the values were obtained:
[1] = system: sciatic nerve of rats made diabetic by streptozotocin; assay: sciatic nerve blood flow by microelectrode polarography hydrogen clearance in streptozotocin diabetic rats; assay type: in vivo, rat; details: STZ diabetic Sprague Dawley rats; GLA approx. 20 mg/kg/daily in food, TA 20 mg/kg/day intraperitoneal; 2 weeks treatment starting 6 weeks after STZ
Source text: (§1) Initial experimental evidence was obtained by studying rats made diabetic by the administration of streptozotocin. In such animal, complications resembling human complications of diabetes develop, and are characterised by reduction in conduction velocity to of impulses along the sciatic nerve and reduction in blood flow to the sciatic nerve. The reduction in blood flow is particularly important and is likely to be relevant to many complications of diabetes including retinopathy, nephropathy macrovascular arterial disease of the heart and peripheral arteries, impotence and leg ulceration. It may also be relevant to many of the other conditions in which essential fatty acids are useful treatments, including the inflammatory disorders. Five groups of animals given streptozotocin (STZ) were tested. They were accepted into the study only if they developed unequivocal elevation of blood glucose after the STZ. Ten animals acted as normal controls. […] The animals were left for 6 weeks after the STZ to allow the nerve damage to develop and were then given treatment with nothing or with GLA or TA or both together for 2 weeks At the end of the two weeks, the animals were anaesthetised and the motor nerve conduction velocity measured in the perineal branch of the sciatic nerve. Sciatic nerve blood flow was also measured by microelectrode polarography hydrogen clearance

[2] = system: nerve conduction; details: TA alone; Packer et al, pages 570-572; cited from earlier work
[3] = system: perineal branch of the sciatic nerve of rats made diabetic by streptozotocin; assay: motor nerve conduction velocity in streptozotocin diabetic rats; assay type: in vivo, rat; details: STZ diabetic Sprague Dawley rats; GLA approx. 20 mg/kg/daily in food, TA 20 mg/kg/day intraperitoneal; 2 weeks treatment starting 6 weeks after STZ
Source text: as §1

[4] = system: red cell membrane phospholipids; assay: fatty acid levels in red cell membrane phospholipids of rats fed GLA, EPA or DHA with or without anti-oxidant; assay type: in vivo, rat; details: two weeks; for effect on levels of the fatty acids or their immediate metabolites in red cell membrane phospholipids: fatty acid (GLA, EPA or DHA) 0.1% by weight in food plus 0.1% by weight anti-oxidant, preliminary experiments
Experimental: (§2) In an effort to explore the effect further, we have performed preliminary experiments on rats on the effects of the administration of either GLA, EPA or DHA with or without the so anti-oxidants vitamin E, vitamin C or TA. Each fatty acid was added to the food at 0.1% by weight for a period of two weeks. The diet also contained either no other added material (control) or 0.1% by weight of vitamin E, vitamin C or TA. After two weeks the animals were killed and the levels of the fatty acids or their immediate metabolites determined in plasma phospholipids and in red cell membrane phospholipids. […] We can therefore conclude that there is no effect of anti-oxidants per se on the metabolism of the GLA, EPA or DHA in this situation. Equally, there were no effects of TA on the plasma phospholipid fatty acid composition. In contrast, in each of the groups the concentrations of the relevant fatty acids in red cell phospholipids were increased by 10-20%.

[5] = system: plasma phospholipids; assay: fatty acid levels in plasma phospholipids of rats fed GLA, EPA or DHA with or without anti-oxidant; assay type: in vivo, rat; details: fatty acid (GLA, EPA or DHA) 0.1% by weight in food plus 0.1% by weight anti-oxidant, two weeks, preliminary experiments
Experimental: as §2

[6] = system: animals with diabetes; assay: vitamin E administered together with GLA in animals with diabetes; assay type: in vivo
Source text: (§3) The results with EFA's and their synergistic effects with TA were completely unexpected and we decided to investigate them further. Vitamin E, like TA, is a lipophilic antioxidant and is one which is generally regarded as being physiologically more important than TA.

[7] = system: atopic eczema, breast pain, rheumatoid arthritis and cardiovascular disease; assay: clinical studies of GLA with co-administration of vitamin E; assay type: in vivo, human
Source text: as §3

| Molecule | total nerve blood flow [1] | effect on nerve conduction [2] | motor nerve conduction velocity [3] | increase of concentrations of the relevant fatty acids in red cell phospholipids ([4]; GLA, EPA or DHA 0.1% by weight in food plus 0.1% by weight TA, versus control without TA) | effect on levels of the fatty acids or their immediate metabolites in plasma phospholipids [5] | enhancement of the effect of GLA [6] | effect on levels of the fatty acids or their immediate metabolites in red cell membrane phospholipids [4] | enhancement of the effects of GLA in clinical studies [7] |
| --- | --- | --- | --- | --- | --- | --- | --- | --- |
| O=C(O)CCCCC1CCSS1 (stereo not drawn) [TA, α-lipoic acid] | little effect alone; also recorded: small improvements | absence of effect | little effect alone; also recorded: small improvements | 10-20% | no effects | – | – | – |
| CCCCC/C=C\C/C=C\C/C=C\CCCCC(=O)O [GLA, Gamma-linolenic acid] | little effect alone; also recorded: small improvements | – | little effect alone; also recorded: small improvements | – | – | – | – | – |
| vitamin E | – | – | – | – | Neither vitamin E nor vitamin C had any effects | no enhancement at all | Neither vitamin E nor vitamin C had any effects | not enhanced |
| O=C1O[C@H]([C@@H](O)CO)C(O)=C1O [vitamin C] | – | – | – | – | Neither vitamin E nor vitamin C had any effects | – | Neither vitamin E nor vitamin C had any effects | – |
